Measured values from patent US8871269B2, “Method for the preparation of controlled release formulations” (Evonik Corporation, priority 2003, dated 2014).

Assay: Stability of free peptide incubated in release medium (HPLC)
Format: physicochemical
Settings: free peptide incubated in release medium (PBS, pH 7.2, 37 C), after 49 days
Protocol: Octreotide acetate as the free peptide was measured to be 95% intact by high-pressure liquid chromatography (HPLC) following incubation in the release medium (PBS, pH 7.2, 37° C.) after 49 days. In contrast, incubation of octreotide acetate PLGA microparticle formulations produced 55% of modified peptide species after 70 days in the release medium (PBS, pH 7.2, 37° C., Table 2). […] The masses found were consistent with random acylation, for example, peptide plus one or two glycolic or lactic acid monomers in any combination. It may be that acylation products arise from attack on PLGA fragments or the polymer backbone by nucleophilic moieties in octreotide. At a lower pH these moieties likely would be protonated reducing their nucleophilicity and consequently the amount of acylated product. It was observed that formation of acylated byproducts for octreotide acetate PLGA microparticles incubated in 100 mM sodium acetate (NaOAc, pH 4.0) buffer was reduced to 1.25% at 49 days, in marked contrast to the results for PBS buffer (55%).

C[C@@H](O)[C@@H]1NC(=O)[C@H](CCCCN)NC(=O)[C@@H](Cc2c[nH]c3ccccc23)NC(=O)[C@H](Cc2ccccc2)NC(=O)[C@@H](NC(=O)[C@H](N)Cc2ccccc2)CSSC[C@@H](C(=O)N[C@H](CO)[C@@H](C)O)NC1=O [Octreotide acetate]
Peptide intact by HPLC: 95%
